Measured values reported in ChEMBL document CHEMBL5550152, “Design, synthesis and evaluation of novel prostate-specific membrane antigen-targeted aryl [18F]fluorosulfate PET tracers” (Bioorg Med Chem, 2024).

Key:
[1] = Drug distribution in nude mouse stomach xenografted with human 22Rv1 cells at 8.1 MBq,iv measured after 2 hrs; assay type: ADME, tissue-based, CWR22R; conditions: in vivo
[2] = Drug distribution in nude mouse brain xenografted with human 22Rv1 cells at 8.1 MBq,iv measured after 2 hrs in presence of 2-PMPA; assay type: ADME, tissue-based, CWR22R; conditions: in vivo
[3] = Drug distribution in nude mouse lung xenografted with human 22Rv1 cells at 8.1 MBq,iv measured after 2 hrs in presence of 2-PMPA; assay type: ADME, tissue-based, CWR22R; conditions: in vivo
[4] = Drug uptake in mouse tumor xenografted with human 22Rv1 cells at 7.4 MBq, iv measured after 4 hrs by PET imaging analysis relative to control; assay type: ADME, organism-based, Neoplasm, CWR22R; conditions: in vivo
[5] = Stability of the compound in PBS buffer measured after 4 hrs by radio-HPLC analysis; assay type: physicochemical
[6] = Drug distribution in nude mouse brain xenografted with human 22Rv1 cells at 8.1 MBq,iv measured after 2 hrs; assay type: ADME, tissue-based, CWR22R; conditions: in vivo
[7] = Drug distribution in nude mouse spleen xenografted with human 22Rv1 cells at 8.1 MBq,iv measured after 2 hrs in presence of 2-PMPA; assay type: ADME, tissue-based, CWR22R; conditions: in vivo
[8] = Drug distribution in nude mouse bone xenografted with human 22Rv1 cells at 8.1 MBq,iv measured after 2 hrs; assay type: ADME, tissue-based, Bone element, CWR22R; conditions: in vivo
[9] = Drug distribution in nude mouse large intestine xenografted with human 22Rv1 cells at 8.1 MBq,iv measured after 2 hrs in presence of 2-PMPA; assay type: ADME, tissue-based, CWR22R; conditions: in vivo
[10] = Drug distribution in nude mouse kidney xenografted with human 22Rv1 cells at 8.1 MBq,iv measured after 2 hrs in presence of 2-PMPA; assay type: ADME, tissue-based, CWR22R; conditions: in vivo
[11] = Drug distribution in nude mouse gall bladder xenografted with human 22Rv1 cells at 8.1 MBq,iv measured after 2 hrs in presence of 2-PMPA; assay type: ADME, tissue-based, CWR22R; conditions: in vivo
[12] = Drug uptake in human 22Rv1 cells at 3.7 10^-2MBq pretreated with 2-PMPA for 30 mins followed by compound addition and measured after 4 hr relative to control; assay type: ADME, cell-based; conditions: cwr22r
[13] = Drug distribution in nude mouse tumor xenografted with human 22Rv1 cells at 8.1 MBq,iv measured after 2 hrs; assay type: ADME, tissue-based, Neoplasm, CWR22R; conditions: in vivo
[14] = Drug distribution in nude mouse lung xenografted with human 22Rv1 cells at 8.1 MBq,iv measured after 1 hr; assay type: ADME, tissue-based, CWR22R; conditions: in vivo
[15] = Drug distribution in nude mouse bone xenografted with human 22Rv1 cells at 8.1 MBq,iv measured after 2 hrs in presence of 2-PMPA; assay type: ADME, tissue-based, Bone element, CWR22R; conditions: in vivo
[16] = Drug distribution in nude mouse muscle tissue xenografted with human 22Rv1 cells at 8.1 MBq,iv measured after 2 hrs; assay type: ADME, tissue-based, CWR22R; conditions: in vivo
[17] = Drug distribution in nude mouse liver xenografted with human 22Rv1 cells at 8.1 MBq,iv measured after 2 hrs; assay type: ADME, tissue-based, CWR22R; conditions: in vivo
[18] = Drug distribution in nude mouse bone xenografted with human 22Rv1 cells at 8.1 MBq,iv measured after 1 hr; assay type: ADME, tissue-based, Bone element, CWR22R; conditions: in vivo
[19] = Drug distribution in nude mouse liver xenografted with human 22Rv1 cells at 8.1 MBq,iv measured after 4 hrs; assay type: ADME, tissue-based, CWR22R; conditions: in vivo
[20] = Drug distribution in nude mouse small intestine xenografted with human 22Rv1 cells at 8.1 MBq,iv measured after 4 hrs; assay type: ADME, tissue-based, CWR22R; conditions: in vivo
[21] = Drug distribution in nude mouse stomach xenografted with human 22Rv1 cells at 8.1 MBq,iv measured after 1 hr; assay type: ADME, tissue-based, CWR22R; conditions: in vivo
[22] = Drug distribution in nude mouse tumor xenografted with human 22Rv1 cells at 8.1 MBq,iv measured after 2 hrs in presence of 2-PMPA; assay type: ADME, tissue-based, Neoplasm, CWR22R; conditions: in vivo
[23] = Drug distribution in nude mouse heart xenografted with human 22Rv1 cells at 8.1 MBq,iv measured after 1 hr; assay type: ADME, tissue-based, CWR22R; conditions: in vivo
[24] = Drug uptake in human 22Rv1 cells at 3.7 10^-2MBq measured after 4 hrs relative to control; assay type: ADME, cell-based; conditions: cwr22r
[25] = Drug distribution in nude mouse heart xenografted with human 22Rv1 cells at 8.1 MBq,iv measured after 4 hrs; assay type: ADME, tissue-based, CWR22R; conditions: in vivo
[26] = Drug distribution in nude mouse blood xenografted with human 22Rv1 cells at 8.1 MBq,iv measured after 4 hrs; assay type: ADME, tissue-based, CWR22R; conditions: in vivo
[27] = Stability in mouse plasma measured after 4 hrs by radio-HPLC analysis; assay type: ADME, cell-free
[28] = Drug distribution in nude mouse gall bladder xenografted with human 22Rv1 cells at 8.1 MBq,iv measured after 1 hr; assay type: ADME, tissue-based, CWR22R; conditions: in vivo
[29] = Drug uptake in mouse tumor xenografted with human 22Rv1 cells at 7.4 MBq, iv measured after 2 hrs by PET imaging analysis relative to control; assay type: ADME, organism-based, Neoplasm, CWR22R; conditions: in vivo
[30] = Drug distribution in nude mouse blood xenografted with human 22Rv1 cells at 8.1 MBq,iv measured after 2 hrs in presence of 2-PMPA; assay type: ADME, tissue-based, CWR22R; conditions: in vivo
[31] = Drug distribution in nude mouse large intestine xenografted with human 22Rv1 cells at 8.1 MBq,iv measured after 1 hr; assay type: ADME, tissue-based, CWR22R; conditions: in vivo
[32] = Drug distribution in nude mouse heart xenografted with human 22Rv1 cells at 8.1 MBq,iv measured after 2 hrs in presence of 2-PMPA; assay type: ADME, tissue-based, CWR22R; conditions: in vivo

Compound: COc1cc(C(=O)N[C@@H](CCC(=O)O)C(=O)N[C@@H](CCC(=O)O)C(=O)NCc2ccc(C(=O)N[C@@H](Cc3ccc4ccccc4c3)C(=O)NCCCC[C@H](NC(=O)N[C@@H](CCC(=O)O)C(=O)O)C(=O)O)cc2)ccc1OS(=O)(=O)[18F]
- Drug uptake [1]: 0.95 % ID/g
- Drug uptake [2]: 0.08 % ID/g
- Drug uptake [3]: 1.58 % ID/g
- Drug uptake [4]: 3.25 % ID/g
- Stability [5]: Stable
- Drug uptake [6]: 0.1 % ID/g
- Drug uptake [7]: 0.83 % ID/g
- Drug uptake [8]: 3.79 % ID/g
- Drug uptake [9]: 1.1 % ID/g
- Drug uptake [10]: 4.33 % ID/g
- Drug uptake [11]: 4.39 % ID/g
- Drug uptake [12]: 0.26%
- Drug uptake [13]: 4.54 % ID/g
- Drug uptake [14]: 3.18 % ID/g
- Drug uptake [15]: 2.49 % ID/g
- Drug uptake [16]: 0.45 % ID/g
- Drug uptake [17]: 1.79 % ID/g
- Drug uptake [18]: 2.11 % ID/g
- Drug uptake [19]: 0.79 % ID/g
- Drug uptake [20]: 0.79 % ID/g
- Drug uptake [21]: 1.75 % ID/g
- Drug uptake [22]: 1.82 % ID/g
- Drug uptake [23]: 1.57 % ID/g
- Drug uptake [24]: 1.19%
- Drug uptake [25]: 0.31 % ID/g
- Drug uptake [26]: 0.8 % ID/g
- Stability [27]: Stable
- Drug uptake [28]: 3.69 % ID/g
- Drug uptake [29]: 2.85 % ID/g
- Drug uptake [30]: 3.86 % ID/g
- Drug uptake [31]: 2.21 % ID/g
- Drug uptake [32]: 0.85 % ID/g
